Measured values published in patent publication US12630528B2, “Amino aryl derivative useful as diacylglycerol acyltransferase 2 inhibitor and use thereof” (LG CHEM, LTD., priority 2019, dated 2026).

Biological target: T1, human DGAT2 (Homo sapiens, UniProt Q96PD7)
T1 construct: FLAG (DYKDDDDK); made in house; host or cells: Sf-21 insect cells (BacPAK baculovirus system); membrane fraction used
T1 sequence (Q96PD7 1-388): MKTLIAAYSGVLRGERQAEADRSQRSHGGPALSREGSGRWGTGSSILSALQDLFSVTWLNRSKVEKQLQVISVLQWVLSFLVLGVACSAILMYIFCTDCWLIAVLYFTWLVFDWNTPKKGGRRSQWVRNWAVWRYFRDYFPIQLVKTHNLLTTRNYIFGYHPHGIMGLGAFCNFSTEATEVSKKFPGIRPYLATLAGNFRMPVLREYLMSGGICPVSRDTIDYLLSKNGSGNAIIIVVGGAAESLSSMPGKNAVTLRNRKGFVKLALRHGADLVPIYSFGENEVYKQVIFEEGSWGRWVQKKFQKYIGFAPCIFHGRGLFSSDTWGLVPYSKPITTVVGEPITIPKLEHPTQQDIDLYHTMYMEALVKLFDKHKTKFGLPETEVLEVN
Test: DGAT2 enzyme activity inhibition, Phospholipid FlashPlate SPA
Type: biochemical
Conditions: recombinant human DGAT2 membrane protein from Sf-21 cells; inhibition of [14C]-TG production; 37° C.
In short: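 Sf-21 membranes expressing recombinant human DGAT2 (2 μg) preincubated with compound (3 nM–10 μM, 1% DMSO) and 50 μM 1,2 sn-oleoyl glycerol, 20 min at 37 °C, then 1 μM [14C]oleoyl-CoA for 15 min. [14C]-TG counted by SPA; inhibition as % of untreated.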

SMILES	IC50 [nM]
CCOc1ccccc1O[C@@H]1CCCN(c2cncc(Nc3ccc(-c4cccc(CC(C)(C)C(=O)O)c4)nc3)n2)C1 [Example 48, (R)-3-(3-(5-((6-(3-(2-ethoxyphenoxy)piperidin-1-yl)pyrazin-2-yl)amino)pyridin-2-yl)phenyl)-2,2-dimethylpropanoic Acid]	1800
CCOc1ccccc1O[C@@H]1CCCN(c2cncc(Nc3cc(-c4cccc(CCC(=O)O)c4)ccn3)n2)C1 [Example 46, (R)-3-(3-(2-((6-(3-(2-ethoxyphenoxy)piperidin-1-yl)pyrazin-2-yl)amino)pyridin-4-yl)phenyl)propanoic Acid]	1800
CCOc1cccnc1O[C@@H]1CCCN(c2cncc(Nc3nccc(O[C@H]4CC[C@@H](C(=O)O)CC4)n3)n2)C1 [Example 138, (1S,4s)-4-((2-((6-((R)-3-((3-ethoxypyridin-2-yl)oxy)piperidin-1-yl)pyrazin-2-yl)amino)pyrimidin-4-yl)oxy)cyclohexane-1-carboxylic Acid]	780
CCOc1ccccc1O[C@@H]1CCCN(c2cncc(Nc3nc(-c4ccccc4)co3)n2)C1 [Example 9, (R)—N-(6-(3-(2-ethoxyphenoxy)piperidin-1-yl)pyrazin-2-yl)-4-phenyloxazol-2-amine]	2300
CCOc1ccccc1O[C@@H]1CCCN(c2cncc(Nc3nc4cc(CCC(=O)O)ccc4o3)n2)C1 [Example 16, (R)-3-(2-((6-(3-(2-ethoxyphenoxy)piperidin-1-yl)pyrazin-2-yl)amino)benzo[d]oxazol-5-yl)propanoic Acid]	> 10000
CCOc1ccccc1O[C@@H]1CCCN(c2ccnc(Nc3nccc(-c4ccc(CC(C)(C)C(=O)O)cc4)n3)n2)C1 [Example 156, (R)-3-(4-(2-((4-(3-(2-ethoxyphenoxy)piperidin-1-yl)pyrimidin-2-yl)amino)pyrimidin-4-yl)phenyl)-2,2-dimethylpropanoic Acid]	1200
CCOc1ccccc1O[C@@H]1CCCN(c2cncc(Nc3nccs3)n2)C1 [Example 3, (R)—N-(6-(3-(2-ethoxyphenoxy)piperidin-1-yl)pyrazin-2-yl)thiazol-2-amine]	6300
CCOc1ccccc1O[C@@H]1CCCN(c2cncc(Nc3nccc(N4CCC[C@@H](OCC(=O)O)C4)n3)n2)C1 [Example 132, 2-(((R)-1-(2-((6-((R)-3-(2-ethoxyphenoxy)piperidin-1-yl)pyrazin-2-yl)amino)pyrimidin-4-yl)piperidin-3-yl)oxy)acetic Acid]	6700
CCOc1ccccc1O[C@@H]1CCCN(c2cncc(Nc3nc4cc(/C=C/C(=O)O)ccc4o3)n2)C1 [Example 15, (R,E)-3-(2-((6-(3-(2-ethoxyphenoxy)piperidin-1-yl)pyrazin-2-yl)amino)benzo[d]oxazol-5-yl)acrylic Acid]	7300
CCOc1cccnc1O[C@@H]1CCCN(c2cncc(Nc3nccc(-c4cccc(OC(C)(C)C(=O)O)c4)n3)n2)C1 [Example 159, (R)-2-(3-(2-((6-(3-((3-ethoxypyridin-2-yl)oxy)piperidin-1-yl)pyrazin-2-yl)amino)pyrimidin-4-yl)phenoxy)-2-methylpropanoic Acid]	560
CCOc1ccccc1O[C@@H]1CCCN(c2ccnc(Nc3nccc(-c4cccc(CC(C)(C)C(=O)O)c4)n3)n2)C1 [Example 150, (R)-3-(3-(2-((4-(3-(2-ethoxyphenoxy)piperidin-1-yl)pyrimidin-2-yl)amino)pyrimidin-4-yl)phenyl)-2,2-dimethylpropanoic Acid]	1200
CCOc1ccccc1O[C@@H]1CCCN(c2cncc(Nc3nccc(N4CCCC(C(=O)O)C4)n3)n2)C1 (stereo partly drawn) [Example 120, 1-(2-((6-((R)-3-(2-ethoxyphenoxy)piperidin-1-yl)pyrazin-2-yl)amino)pyrimidin-4-yl)piperidine-3-carboxylic Acid]	890
CCOc1ccccc1O[C@@H]1CCCN(c2cncc(Nc3nccc(-c4cccc(C(=O)O)n4)n3)n2)C1 [Example 139, (R)-6-(2-((6-(3-(2-ethoxyphenoxy)piperidin-1-yl)pyrazin-2-yl)amino)pyrimidin-4-yl)picolinic Acid]	> 10000
CCOc1ccccc1O[C@@H]1CCCN(c2cncc(Nc3nc4ccccc4s3)n2)C1 [Example 5, (R)—N-(6-(3-(2-ethoxyphenoxy)piperidin-1-yl)pyrazin-2-yl)benzo[d]thiazol-2-amine]	≥ 13000
CCOc1ccccc1O[C@@H]1CCCN(c2cncc(Nc3ccc(CC(=O)O)cn3)n2)C1 [Example 36, (R)-2-(6-((6-(3-(2-ethoxyphenoxy)piperidin-1-yl)pyrazin-2-yl)amino)pyridin-3-yl)acetic Acid]	> 10000
CCOc1ccccc1O[C@@H]1CCCN(c2cncc(Nc3nc4cc(CC(=O)O)ccc4o3)n2)C1 [Example 12, (R)-2-(2-((6-(3-(2-ethoxyphenoxy)piperidin-1-yl)pyrazin-2-yl)amino)benzo[d]oxazol-5-yl)acetic Acid]	3400

These reach a lower IC50. Values come first.

IC50 [nM]	SMILES
150	CCOc1cccnc1O[C@@H]1CCCN(c2cncc(Nc3nccc(-c4cccc(CC(C)(C)C(=O)O)c4)n3)n2)C1 [Example 147, (R)-3-(3-(2-((6-(3-((3-ethoxypyridin-2-yl)oxy)piperidin-1-yl)pyrazin-2-yl)amino)pyrimidin-4-yl)phenyl)-2,2-dimethylpropanoic Acid]
59	CCOc1ccccc1O[C@@H]1CCCN(c2cncc(Nc3nc4cc(Cl)ccc4o3)n2)C1 [Example 11, (R)-5-chloro-N-(6-(3-(2-ethoxyphenoxy)piperidin-1-yl)pyrazin-2-yl)benzo[d]oxazol-2-amine]
120	CCOc1ccccc1O[C@@H]1CCCN(c2cncc(Nc3cccc(-c4ccc(OC(C)(C)C(=O)O)cc4)n3)n2)C1 [Example 82, (R)-2-(4-(6-((6-(3-(2-ethoxyphenoxy)piperidin-1-yl)pyrazin-2-yl)amino)pyridin-2-yl)phenoxy)-2-methylpropanoic Acid]
470	CCOc1cccnc1O[C@@H]1CCCN(c2cncc(Nc3nc(-c4cccc(CC(C)(C)C(=O)O)c4)cc(C(F)(F)F)n3)n2)C1 [Example 166, (R)-3-(3-(2-((6-(3-((3-ethoxypyridin-2-yl)oxy)piperidin-1-yl)pyrazin-2-yl)amino)-6-(trifluoromethyl)pyrimidin-4-yl)phenyl)-2,2-dimethylpropanoic Acid]
320	CCOc1ccccc1O[C@@H]1CCCN(c2cncc(Nc3ncc(F)c(-c4cccc(CC(C)(C)C(=O)O)c4)n3)n2)C1 [Example 164, (R)-3-(3-(2-((6-(3-(2-ethoxyphenoxy)piperidin-1-yl)pyrazin-2-yl)amino)-5-fluoropyrimidin-4-yl)phenyl)-2,2-dimethylpropanoic Acid]
300	CCOc1cccnc1O[C@@H]1CCCN(c2cncc(Nc3cccc(Oc4cccc(C(C)(C)C(=O)O)c4)n3)n2)C1 [Example 92, (R)-2-(3-((6-((6-(3-((3-ethoxypyridin-2-yl)oxy)piperidin-1-yl)pyrazin-2-yl)amino)pyridin-2-yl)oxy)phenyl)-2-methylpropanoic Acid]
220	CCOc1cccnc1O[C@@H]1CCCN(c2cncc(Nc3ccnc(-c4ccc(CC(C)(C)C(=O)O)cc4)n3)n2)C1 [Example 173, (R)-3-(4-(4-((6-(3-((3-ethoxypyridin-2-yl)oxy)piperidin-1-yl)pyrazin-2-yl)amino)pyrimidin-2-yl)phenyl)-2,2-dimethylpropanoic Acid]
200	CCOc1ccccc1O[C@@H]1CCCN(c2cncc(Nc3nccc(-c4ccc(C(C)(C)C(=O)O)cc4)n3)n2)C1 [Example 143, (R)-2-(4-(2-((6-(3-(2-ethoxyphenoxy)piperidin-1-yl)pyrazin-2-yl)amino)pyrimidin-4-yl)phenyl)-2-methylpropanoic Acid]
150	CCOc1ccccc1O[C@@H]1CCCN(c2cncc(Nc3nccc(-c4cccc(CC(=O)O)c4)n3)n2)C1 [Example 140, (R)-2-(3-(2-((6-(3-(2-ethoxyphenoxy)piperidin-1-yl)pyrazin-2-yl)amino)pyrimidin-4-yl)phenyl)acetic Acid]
91	CCOc1ccccc1O[C@@H]1CCCN(c2cncc(Nc3cccc(-c4ccc(C(C)(C)C(=O)O)cc4)n3)n2)C1 [Example 61, (R)-2-(4-(6-((6-(3-(2-ethoxyphenoxy)piperidin-1-yl)pyrazin-2-yl)amino)pyridin-2-yl)phenyl)-2-methylpropanoic Acid]
220	CCOc1cccnc1O[C@@H]1CCCN(c2cncc(Nc3cccc(-c4cc(OC(C)(C)C(=O)O)ccc4F)n3)n2)C1 [Example 85, (R)-2-(3-(6-((6-(3-((3-ethoxypyridin-2-yl)oxy)piperidin-1-yl)pyrazin-2-yl)amino)pyridin-2-yl)-4-fluorophenoxy)-2-methylpropanoic Acid]
230	CCOc1cccnc1O[C@@H]1CCCN(c2cncc(Nc3cccc(Oc4ccc(C(C)(C)C(=O)O)cc4)n3)n2)C1 [Example 94, (R)-2-(4-((6-((6-(3-((3-ethoxypyridin-2-yl)oxy)piperidin-1-yl)pyrazin-2-yl)amino)pyridin-2-yl)oxy)phenyl)-2-methylpropanoic Acid]
260	CCOc1ccccc1O[C@@H]1CCCN(c2cncc(Nc3nc(-c4cc(CC(C)(C)C(=O)O)ccc4F)ccc3F)n2)C1 [Example 107, (R)-3-(3-(6-((6-(3-(2-ethoxyphenoxy)piperidin-1-yl)pyrazin-2-yl)amino)-5-fluoropyridin-2-yl)-4-fluorophenyl)-2,2-dimethylpropanoic Acid]
